± gives the standard deviation of the averaged measurements.
compound: COc1cccc2c1C(=O)c1c(O)c3c(c(O)c1C2=O)C[C@@](O)(C(=O)CO)C[C@@H]3O[C@H]1C[C@H](N)[C@H](O)[C@H](C)O1 [DOXORUBICIN]; assay: surviving fraction relative to DMSO-only wells; higher = less growth inhibition; settings: 10 nM; exposure time: 5 days
How it was run: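 Surviving fraction is CellTiter-Glo luminescence divided by the median of wells given DMSO only. For this, log-phase tumour cell lines went into 384-well plates at 250–500 cells per well and, 24 hours later, into five days of continuous inhibitor exposure at 0.5, 1, 5, 10, 50, 100, 500 and 1000 nM. Lines were screened three times and retained only if replicate Pearson r >0.7 and median Z' >0.3.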

MDAMB468 BREAST gave a surviving fraction of 0.969 ± 0.013.

same assay, conditions: 50 nM; exposure time: 5 days

Compared with SUM149.B1*.S BREAST, 93VU HEADNECK is higher in surviving fraction: 0.285 ± 0.0081 for the first, 0.697 ± 0.049 for the second.

Compared with LM7 BONE, 143B BONE is higher in surviving fraction: 0.245 ± 0.016 for the first, 0.417 ± 0.027 for the second.

SUM159 BREAST and SUM149 BREAST are within error of each other in surviving fraction: 0.176 ± 0.045 for the first, 0.186 ± 0.014 for the second.

Going from MDAMB361 BREAST to SAOS2 BONE, the surviving fraction falls from 0.746 ± 0.038 to 0.277 ± 0.0081.

First: ASKA SYNOVIAL
Second: HCC1395 BREAST
The surviving fraction of the first is lower: 0.204 ± 0.016 for the first, 0.928 ± 0.11 for the second.

First: HCC1954 BREAST
Second: CME SYNOVIAL
The surviving fraction of the first is higher: 0.465 ± 0.067 for the first, 0.237 ± 0.023 for the second.

First: VCAP PROSTATE
Second: YAMATO SYNOVIAL
The surviving fraction of the first is higher: 1.02 ± 0.052 for the first, 0.388 ± 0.018 for the second.

Compared with HCC202 BREAST, HELA CERVIX is lower in surviving fraction: 0.697 ± 0.069 for the first, 0.316 ± 0.007 for the second.

Going from SG27 HEADNECK to CAL72 BONE, the surviving fraction falls from 0.949 ± 0.038 to 0.298 ± 0.042.

Going from MDAMB134 BREAST to C33A CERVIX, the surviving fraction falls from 0.734 ± 0.023 to 0.122 ± 0.013.

Going from SKBR3 BREAST to MHM BONE, the surviving fraction rises from 0.375 ± 0.026 to 0.841 ± 0.029.

First: VP229 BREAST
Second: SYO1 SYNOVIAL
The surviving fraction of the first is higher: 0.835 ± 0.11 for the first, 0.0563 ± 0.015 for the second.

Compared with ZR751 BREAST, KPD BONE is lower in surviving fraction: 0.585 ± 0.047 for the first, 0.242 ± 0.048 for the second.

First: SIHA CERVIX
Second: DU4475 BREAST
The surviving fraction of the first is higher: 0.505 ± 0.04 for the first, 0.029 ± 0.0066 for the second.

First: BT549 BREAST
Second: COLO320DM LARGE INTESTINE
The surviving fraction of the first is lower: 0.229 ± 0.022 for the first, 1.05 ± 0.091 for the second.

First: T47D BREAST
Second: H23 LUNG
The surviving fraction of the first is higher: 0.708 ± 0.021 for the first, 0.403 ± 0.031 for the second.

Compared with NCIH441 LUNG, HCT15 LARGE INTESTINE is lower in surviving fraction: 0.558 ± 0.013 for the first, 0.486 ± 0.044 for the second.

SCC90 HEADNECK and MDAMB453 BREAST are within error of each other in surviving fraction: 0.711 ± 0.12 for the first, 0.723 ± 0.065 for the second.

Going from MG63 BONE to A549 LUNG, the surviving fraction rises from 0.21 ± 0.014 to 0.565 ± 0.031.

MDAMB468 BREAST was tested, and the surviving fraction was 0.49 ± 0.18.

same assay, conditions: 100 nM; exposure time: 5 days

First: SUM149.B1*.S BREAST
Second: 93VU HEADNECK
The surviving fraction of the first is lower: 0.179 ± 0.014 for the first, 0.525 ± 0.046 for the second.

First: LM7 BONE
Second: 143B BONE
The surviving fraction of the first is lower: 0.229 ± 0.018 for the first, 0.2785 ± 0.00071 for the second.

SUM159 BREAST and SUM149 BREAST are within error of each other in surviving fraction: 0.173 ± 0.027 for the first, 0.145 ± 0.0087 for the second.

Going from MDAMB361 BREAST to SAOS2 BONE, the surviving fraction falls from 0.831 ± 0.1 to 0.111 ± 0.0087.

First: ASKA SYNOVIAL
Second: HCC1395 BREAST
The surviving fraction of the first is lower: 0.166 ± 0.0025 for the first, 1.07 ± 0.08 for the second.

Going from HCC1954 BREAST to CME SYNOVIAL, the surviving fraction rises from 0.169 ± 0.0085 to 0.215 ± 0.016.

Going from VCAP PROSTATE to YAMATO SYNOVIAL, the surviving fraction rises from 0.291 ± 0.0036 to 0.329 ± 0.03.

Going from HCC202 BREAST to HELA CERVIX, the surviving fraction falls from 0.457 ± 0.065 to 0.309 ± 0.022.

First: SG27 HEADNECK
Second: CAL72 BONE
The surviving fraction of the first is higher: 0.867 ± 0.081 for the first, 0.299 ± 0.018 for the second.

Going from MDAMB134 BREAST to C33A CERVIX, the surviving fraction falls from 0.693 ± 0.085 to 0.085 ± 0.0096.

Compared with SKBR3 BREAST, MHM BONE is higher in surviving fraction: 0.256 ± 0.0044 for the first, 0.792 ± 0.02 for the second.

Compared with VP229 BREAST, SYO1 SYNOVIAL is lower in surviving fraction: 0.567 ± 0.027 for the first, 0.0384 ± 0.0093 for the second.

Going from ZR751 BREAST to KPD BONE, the surviving fraction falls from 0.361 ± 0.054 to 0.116 ± 0.011.

Compared with SIHA CERVIX, DU4475 BREAST is lower in surviving fraction: 0.481 ± 0.0086 for the first, 0.0287 ± 0.0051 for the second.

Going from BT549 BREAST to COLO320DM LARGE INTESTINE, the surviving fraction rises from 0.0903 ± 0.019 to 0.787 ± 0.14.

Compared with T47D BREAST, H23 LUNG is lower in surviving fraction: 0.518 ± 0.023 for the first, 0.237 ± 0.028 for the second.

First: NCIH441 LUNG
Second: HCT15 LARGE INTESTINE
The surviving fraction of the first is higher: 0.461 ± 0.024 for the first, 0.18 ± 0.018 for the second.

Compared with SCC90 HEADNECK, MDAMB453 BREAST is lower in surviving fraction: 0.571 ± 0.072 for the first, 0.395 ± 0.066 for the second.

Compared with MG63 BONE, A549 LUNG is higher in surviving fraction: 0.16 ± 0.025 for the first, 0.496 ± 0.017 for the second.

In the case of MDAMB468 BREAST, the surviving fraction is reported as 0.342 ± 0.006.

same assay, conditions: 500 nM; exposure time: 5 days

First: SUM149.B1*.S BREAST
Second: 93VU HEADNECK
The surviving fraction of the first is lower: 0.068 ± 0.0038 for the first, 0.249 ± 0.034 for the second.

Compared with LM7 BONE, 143B BONE is higher in surviving fraction: 0.0483 ± 0.0038 for the first, 0.0605 ± 0.0035 for the second.

First: SUM159 BREAST
Second: SUM149 BREAST
The surviving fraction of the first is higher: 0.0397 ± 0.0021 for the first, 0.0277 ± 0.0031 for the second.

Going from MDAMB361 BREAST to SAOS2 BONE, the surviving fraction falls from 0.387 ± 0.034 to 0.036.

First: ASKA SYNOVIAL
Second: HCC1395 BREAST
The surviving fraction of the first is lower: 0.16 ± 0.0079 for the first, 0.693 ± 0.085 for the second.

Compared with HCC1954 BREAST, CME SYNOVIAL is higher in surviving fraction: 0.0355 ± 0.00071 for the first, 0.203 ± 0.013 for the second.

Going from VCAP PROSTATE to YAMATO SYNOVIAL, the surviving fraction rises from 0.0377 ± 0.0064 to 0.258 ± 0.012.

Going from HCC202 BREAST to HELA CERVIX, the surviving fraction falls from 0.0987 ± 0.019 to 0.0252 ± 0.00076.

SG27 HEADNECK and CAL72 BONE are within error of each other in surviving fraction: 0.097 ± 0.014 for the first, 0.0937 ± 0.0021 for the second.

Going from MDAMB134 BREAST to C33A CERVIX, the surviving fraction falls from 0.106 ± 0.019 to 0.0347 ± 0.0086.

Going from SKBR3 BREAST to MHM BONE, the surviving fraction rises from 0.0547 ± 0.0061 to 0.296 ± 0.031.

First: VP229 BREAST
Second: SYO1 SYNOVIAL
The surviving fraction of the first is higher: 0.569 ± 0.13 for the first, 0.0205 ± 0.00087 for the second.

Compared with ZR751 BREAST, KPD BONE is lower in surviving fraction: 0.174 ± 0.018 for the first, 0.0297 ± 0.0031 for the second.

Compared with SIHA CERVIX, DU4475 BREAST is lower in surviving fraction: 0.0967 ± 0.061 for the first, 0.025 ± 0.0046 for the second.

First: BT549 BREAST
Second: COLO320DM LARGE INTESTINE
The surviving fraction of the first is lower: 0.0257 ± 0.0057 for the first, 0.446 ± 0.014 for the second.

Going from T47D BREAST to H23 LUNG, the surviving fraction falls from 0.197 ± 0.033 to 0.0293 ± 0.0015.

First: NCIH441 LUNG
Second: HCT15 LARGE INTESTINE
The surviving fraction of the first is higher: 0.246 ± 0.019 for the first, 0.0863 ± 0.005 for the second.

First: SCC90 HEADNECK
Second: MDAMB453 BREAST
The surviving fraction of the first is higher: 0.11 ± 0.033 for the first, 0.0503 ± 0.0055 for the second.

First: MG63 BONE
Second: A549 LUNG
The surviving fraction of the first is lower: 0.0327 ± 0.0025 for the first, 0.189 ± 0.015 for the second.

With MDAMB468 BREAST the surviving fraction was 0.11 ± 0.035.

same assay, conditions: 1000 nM; exposure time: 5 days

First: SUM149.B1*.S BREAST
Second: 93VU HEADNECK
The surviving fraction of the first is lower: 0.0518 ± 0.0023 for the first, 0.109 ± 0.016 for the second.

First: LM7 BONE
Second: 143B BONE
The surviving fraction of the first is lower: 0.0483 ± 0.0065 for the first, 1.008 ± 0.0092 for the second.

First: SUM159 BREAST
Second: SUM149 BREAST
The surviving fraction of the first is higher: 0.039 ± 0.002 for the first, 0.0253 ± 0.00058 for the second.

Compared with MDAMB361 BREAST, SAOS2 BONE is lower in surviving fraction: 0.0543 ± 0.013 for the first, 0.0367 ± 0.0029 for the second.

First: ASKA SYNOVIAL
Second: HCC1395 BREAST
The surviving fraction of the first is lower: 0.224 ± 0.0035 for the first, 0.808 ± 0.091 for the second.

Going from HCC1954 BREAST to CME SYNOVIAL, the surviving fraction rises from 0.0328 ± 0.00035 to 0.284 ± 0.036.

Going from VCAP PROSTATE to YAMATO SYNOVIAL, the surviving fraction rises from 0.0397 ± 0.015 to 0.341 ± 0.016.

Going from HCC202 BREAST to HELA CERVIX, the surviving fraction falls from 0.0423 ± 0.0078 to 0.0252 ± 0.0013.

Going from SG27 HEADNECK to CAL72 BONE, the surviving fraction rises from 0.0447 ± 0.019 to 0.114 ± 0.0055.

MDAMB134 BREAST and C33A CERVIX are within error of each other in surviving fraction: 0.0295 ± 0.0035 for the first, 0.04 ± 0.0079 for the second.

First: SKBR3 BREAST
Second: MHM BONE
The surviving fraction of the first is lower: 0.0297 ± 0.0032 for the first, 0.16 ± 0.019 for the second.

Going from VP229 BREAST to SYO1 SYNOVIAL, the surviving fraction falls from 0.233 ± 0.056 to 0.0309 ± 0.0013.

Compared with ZR751 BREAST, KPD BONE is lower in surviving fraction: 0.0463 ± 0.00058 for the first, 0.0317 ± 0.0015 for the second.

SIHA CERVIX and DU4475 BREAST are within error of each other in surviving fraction: 0.0287 ± 0.00058 for the first, 0.0273 ± 0.0051 for the second.

Going from BT549 BREAST to COLO320DM LARGE INTESTINE, the surviving fraction rises from 0.0267 ± 0.0015 to 0.388 ± 0.02.

Compared with T47D BREAST, H23 LUNG is lower in surviving fraction: 0.0751 ± 0.0032 for the first, 0.0267 ± 0.0021 for the second.

Compared with NCIH441 LUNG, HCT15 LARGE INTESTINE is lower in surviving fraction: 0.096 ± 0.0069 for the first, 0.066 ± 0.0027 for the second.

Going from SCC90 HEADNECK to MDAMB453 BREAST, the surviving fraction falls from 0.0687 ± 0.0095 to 0.0433 ± 0.0023.

Compared with MG63 BONE, A549 LUNG is higher in surviving fraction: 0.031 ± 0.0017 for the first, 0.083 ± 0.001 for the second.

— the supplement of paper PMC6045584
